In patent US9820966B2, “Stabilized statin formulations” (Cumberland Pharmaceuticals Inc., priority 2010, dated 2017):
Read-outs that look alike come from different tables or passages of the source.

Key:
[1] = Precipitation on dilution into water or saline; format: physicochemical
[2] = Solubility in basic solutions without cyclodextrin (HPLC); settings: Sample 1: 20 mg AS in 1 mL, 16.54 mM L-Arg; pH 10.71 with L-Arg (L-Arg alone)
[3] = AS in propylene glycol and ethanol (4/1), pH 11.0; in 2 hours
Procedure: The sample was then vortexed, filtered, after which it was analyzed by HPLC.

SMILES | precipitation on dilution ([1]; Example 12 PG/ethanol/water sample adjusted to pH 7.5, diluted 1:1 into water) | precipitation on dilution ([1]; Example 12 PG/ethanol/water sample adjusted to pH 8.0, diluted 1:1 into water) | precipitation on dilution ([1]; anything less than 40% propylene glycol and 10% ethanol, diluted with normal saline) | precipitation on dilution ([1]; prepared in non-aqueous co-solvents and then diluted into saline) | precipitation on dilution ([1]; propylene glycol and ethanol (4/1), pH 11.0, diluted 1:3 in saline) | degradation (control solution of the same mixture (20% HPβ-CD, pH 8.47), 40° C. for 1 month) | degradation (solubilized with HPβ-CD (20%, pH 8.47), lyophilized with manifold freeze dryer, 40° C. for 1 month) | degradation (solubilized with HPβ-CD, diluted 1:1 into 8% sucrose, lyophilized with shelf freeze dryer, storage 1 month at 40° C.) | resulting concentration [2] | degradation [3] | precipitation on dilution ([1]; 100% ethanol solution, diluted 1:1 with saline) | precipitation on dilution ([1]; 100% propylene glycol solution, diluted 1:1 with saline)
CC(C)c1c(C(=O)Nc2ccccc2)c(-c2ccccc2)c(-c2ccc(F)cc2)n1CC[C@@H](O)C[C@@H](O)CC(=O)O [AS—Ca, atorvastatin calcium trihydrate] | precipitated | precipitated | precipitation | precipitate | precipitated | ~15.5% | ~3.5% | less than 0.1% | – | – | – | –
CC(C)c1c(C(=O)Nc2ccccc2)c(-c2ccccc2)c(-c2ccc(F)cc2)n1CC[C@@H](O)C[C@@H](O)CC(=O)O [AS, Atorvastatin free acid] | – | – | – | – | – | – | – | – | 1.91 mg/mL | approximately 50% | precipitated | precipitated
